In patent publication US5279543A, “Device for iontophoretic non-invasive sampling or delivery of substances” (priority 1992, dated 1994):
Several values for one entry are separate records, joined by “and”; a condition that tells them apart may be missing. Identical values can stand only once. Entries after “also recorded” stand apart in the source; their conditions may differ. Counter-ions that a name gives are not always drawn.

Tests used:
[1] = In vitro iontophoretic delivery of P.S.O.S. from chamber 16A; type: in vitro ADME
Procedure: (b) P.S.O.S. (Potassium Sucrose Octa Sulfate) P.S.O.S., 0.6 ml of 1.5 mg/ml solution in a boric buffer is placed in chamber 16A and boric acid buffer alone is placed in chamber 16C of FIG. 1, 2 or 3. Using a direct current of 0.5 mA (0.65 mA/cm^2) transport of P.S.O.S. is observed up to 5 μg/hr.

[2] = charged and uncharged TRH; excised nude mouse skin; cited from earlier work
[3] = Procedure: (1) Leakage tests (without current) using dye and silicone rubber than skin; (2) leakage tests using dye and skin (without current); and (3) iontophoretic tests using the drug solutions and skin (with and without current). Procedures (1) and (2) were evaluated by visually inspecting the cell. […] The activity of the skin 13 and of the samples taken from the receptor chamber was determined post-experimentally. Each experiment lasts approximately 24 hours, ±2 hours, with samples collected hourly. Receptor fluid 17 was magnetically stirred (27), and the collection flow rate was 10 ml/hr.
[4] = Iontophoretic sampling in vitro (Example 2); type: in vitro ADME, hairless mouse; details: 0.5 mA, about 2 hr, about 0.63 mA/cm^2; various concentrations; mean of at least two experiments
Procedure: Iontophoretic sampling consists of pulling out chemical substances from the body through the skin by means of electricity. In order to test this method, an iontophoretic in-vitro cell is used (FIGS. 1, 2, 3 or 4). Full-thickness hairless mouse skin 13 (8-13 weeks old) is placed between the two parts of the cell. Solutions of radiolabelled drugs of known concentration in phosphate-buffered saline are circulated 10 ml/hr. beneath the skin. On top of the skin there are two self-adhesive gel electrodes, connected to a power supply which is set up in constant current mode (0.5 mA). Current is applied for measured length of time (about 2 hr.) corresponding to about 0.63 mA/cm^2. After the experiment the gel electrodes are taken for scintillation counting, which reflects the amount of drug absorbed by the gel electrodes. Using different drug concentrations with the same electrical current for the same period of time, a linear correlation between the amount is collected by the electrode and drug concentration is expected.

[5] = In vivo sampling with iontophoresis cell on human forearm; details: forearm of person; versus in vitro case
From the text: The procedure and description above for in vitro sampling is used except that the membrane is replaced by the top of the forearm of a human being. The sampling cell used is the one in FIGS. 7, 8, 9A and 9B.

[6] = In vivo iontophoretic sampling (biosensing) in dog
From the text: The sampling of the radioactive clonidine in vitro is described above. […] The operator is alerted when to administer an injection clondine to maintain the desired level of clonidine in the test dog.

[7] = In vitro iontophoretic sampling of glucose through skin into gel electrodes; type: in vitro ADME, hairless mouse (Skh: hr-1); details: for Amount Glucose Measured In Gel Electrode per Sample: four time periods; for Iontophoretic Flux sample (amount of glucose sampled in 2 hours): 0.5 mA, (+) electrode; for Sample-glucose: four cells
Procedure: In order to show the ability of the method to sample glucose through the skin, in vitro studies are conducted using hairless mouse skin as the skin model and the iontophoretic diffusion cells in FIGS. 1-13. The results here are applicable to in-vivo sampling from a mammal, particularly a human being. Two self-adhesive gel electrodes (Kenzgelelc, by Nitto Electric Industry Co., Limited, Osaka, Japan) are placed on the same side of a singe continuous piece of hairless mouse skin (full thickness-about 0.5 mm) (Skh: hr-1, 8-13 weeks old). Under the skin, radiolabelled (^14 C-U)-glucose having known concentration in solution in phosphate-buffered saline (0.9% sodium chloride) is perfused, pH of phosphate is about 7.4. Temperature is ambient.
In the first set of experiments, following the assembly of the cell and initiation of the glucose solution perfusion, current is applied (0.5 milliampere) for 2 hours. The voltage may vary from about 1 to 10 volts. Usually, it is about 5 volts. The important parameter to keep constant is the applied current. The voltage may vary based upon the electrical resistance of the sampling site. Then the gel electrodes are disconnected and tested for radioactivity content by conventional liquid scintillation counting. […]. […] (Electrical conditions in the experiments--same constant direct current (dc) but as iontophoretic delivery may also operate in pulsed current, etc., (the pulsed approach should also perform in a predictable way for sampling).
the second set of experiments, using similar experimental set-up as before, a (^14 C-U)-glucose solution of 0.34 mg/ml glucose is phosphate buffered saline is perfused, and the gel electrodes are replaced every 30 minutes.
Since the skin for each single experiment comes from a different mouse, evaluation of each single diffusion cell (means--samples collected through the same piece of skin), eliminating the first sample (the first 0.5 hr. is slightly higher than the others due to the experimental conditions) was done. […]

In the case of O=S(=O)(O)OC[C@H]1O[C@@](COS(=O)(=O)O)(O[C@H]2O[C@H](COS(=O)(=O)O)[C@@H](OS(=O)(=O)O)[C@H](OS(=O)(=O)O)[C@H]2OS(=O)(=O)O)[C@@H](OS(=O)(=O)O)[C@@H]1OS(=O)(=O)O [P.S.O.S., Potassium Sucrose Octa Sulfate], the “Transport of P.S.O.S.” value ([1]; direct current 0.5 mA (0.65 mA/cm^2), 0.6 ml of 1.5 mg/ml solution) is reported as “up to 5 μg/hr” and the “Amount of P.S.O.S. transferred” value ([1]; printed 'with a current' (comparison, same configuration)) is reported as “only a few nanograms”.
In the case of NC(=O)[C@@H]1CCCN1C(=O)[C@H](Cc1cnc[nH]1)NC(=O)[C@@H]1CCC(=O)N1 [TRH, thyrotropin releasing hormone], the “Iontophoretic flux across excised tissue compared with passive diffusion” value [2] is listed as “greater than those obtained by passive diffusion alone”.
With Clc1cccc(Cl)c1N=C1NCCN1 [clonidine-HCl, Clonidine HCl] the “Rate of penetration through the skin with current” value ([3]; 0.63 mA/cm^2) was 15.0 μg/cm^2 /hr, the “Mean rate of diffusion into the receptor phase (passive transport rate)” value ([3]; no current) was 0.05 μg/cm^2 /hr and the “Drug found in the buffered saline of chamber 16C” value ([3]; no current, after 20 hours) was “no drug was found”. The “Amount of labelled drug in the buffered saline of chamber 16C” value ([3]; with current 0.63 mA/cm^2, approximately 20 hours) was 5 µg, the “Linearity of amount sampled versus drug concentration (FIG. 11 and 12)” value [4] was “linearity of the results” and the “Amount of clonidine sampled in vivo” value [5] was “comparable to that observed in the in vitro case”. For the same compound, the “Level of radioactive clonidine measured iontophoretically” value [6] was “quickly and accurately”.
For O=C[C@H](O)[C@@H](O)[C@H](O)[C@H](O)CO [glucose], the “S.D. for individual diffusion cells (individual mouse)” value ([7]; 0.34 mg/ml glucose, except cell #3) was 4 to 9%, the “Amount of glucose sampled, average of four separate cells” value ([7]; 0.34 mg/ml glucose, first 0.5 hr sample eliminated) was 0.79 to 0.74 μg and the “Ratio A/B of glucose sampled” value ([7]; 0.153 vs 1.07 mg/ml (concentration ratio 0.143)) was 0.144. For the same compound, the “Sample-glucose, Average” value ([7]; average of samples 1-5 (0 - 2 1/2 hr), 0.34 mg/ml glucose, 15 ml/hr) was 0.80 ± 0.19 µg, the “Amount Glucose Measured In Gel Electrode per Sample” value ([7]; cell 1, 0.34 mg/ml glucose, 15 ml/hr) was 0.825 ± 0.041 µg and the “Amount Glucose Measured In Gel Electrode per Sample” value ([7]; cell 2, 0.34 mg/ml glucose, 15 ml/hr) was 0.963 ± 0.090 µg. The “Amount Glucose Measured In Gel Electrode per Sample” value ([7]; cell 3, 0.34 mg/ml glucose, 15 ml/hr) was 0.530 ± 0.115 µg, the “Amount Glucose Measured In Gel Electrode per Sample” value ([7]; cell 5, 0.34 mg/ml glucose, 15 ml/hr) was 0.727 ± 0.033 µg and the “Correlation between glucose concentration under/in the skin and amount of glucose sampled” value ([7]; fixed sampling time, same electrical conditions) was “near-perfect linear correlation; also recorded: clear correlation”. The “Iontophoretic Flux sample (amount of glucose sampled in 2 hours)” value ([7]; glucose concentration 0.153 mg/ml) was 0.705 μg/2 hr and 0.705 +/- 0.095 μg/2 hr, the “Iontophoretic Flux sample (amount of glucose sampled in 2 hours)” value ([7]; glucose concentration 1.07 mg/ml) was 4.9 μg/2 hr and 4.9 +/- 0.7 μg/2 hr and the Sample-glucose ([7]; sample 1, 0 - 1/2 hr, 0.34 mg/ml glucose, 15 ml/hr) was 0.97 ± 0.12 µg. It also gave a Sample-glucose ([7]; sample 2, 1/2 - 1 hr, 0.34 mg/ml glucose, 15 ml/hr) of 0.79 ± 0.09 µg, a Sample-glucose ([7]; sample 3, 1 - 1 1/2 hr, 0.34 mg/ml glucose, 15 ml/hr) of 0.76 ± 0.10 µg and a Sample-glucose ([7]; sample 4, 1 1/2 - 2 hr, 0.34 mg/ml glucose, 15 ml/hr) of 0.75 ± 0.21 µg. For the same compound, the Sample-glucose ([7]; sample 5, 2 - 2 1/2 hr, 0.34 mg/ml glucose, 15 ml/hr) was 0.74 ± 0.24 µg.
